The values below come from paper PMC8122671, “New Succinimides with Potent Anticancer Activity: Synthesis, Activation of Stress Signaling Pathways and Characterization of Apoptosis in Leukemia and Cervical Cancer Cells” (International Journal of Molecular Sciences, 2021).

Like-named read-outs stand apart in the source and are kept apart here.

Data set [1] is described as follows: Lipophilicity (logkw) by reversed-phase chromatography (RP-HPLC). It counts as physicochemical. As to conditions: for logkw (Experimental): extrapolated to pure water; for logkw (Table S2): intercept of logk vs methanol fraction, n = 4. The source says: The main goal of the synthetic part was the synthesis of new derivatives of dicarboximides with decreased lipophilicity in comparison to the lead compounds, i.e., Ia–Ie and II. To reduce the lipophilicity of the new dicarboximides, a hydroxyalkyl chain connected with an aliphatic amine was introduced to the imides (Scheme 1). At the same time, the imide scaffold in derivatives from group 2 and 3 was the same as in lead compounds Ia–Ie and II, respectively (Figure 1). The structure of the imide was changed in derivatives 1b–1g. The lipophilicity of new derivatives was calculated using the Osiris Property Explorer program. For some compounds, lipophilicity was determined experimentally by a reversed-phase chromatography (detailed description is given in Materials and Methods and in the Supplementary Data, Table S2). Table 1 summarizes the calculated (clogP) and experimental (logkw) parameters of the lipophilicity of new derivatives.
The reversed-phase high-performance liquid chromatography (RP-HPLC) analysis was performed on a Merck–Hitachi LaChrom Elite System (Merck, Darmstadt, Germany) with diode array detector L-2455, thermostat L-2300, pump L-2130, and autosampler L-2200 and with the Waters XTerra MS RP-18 (3.5 μm, 150 × 4.6 mm) chromatographic column (Waters, Milford, MA, USA) as the stationary phase. The mobile phase consisted of methanol, water, and 0.1% (v/v) formic acid and was degassed by the use of the built-in membrane degasser. The methanol gradient grade for HPLC was purchased from Merck (Merck, Darmstadt, Germany) and formic acid from Polish Reagents (Polish Reagents, Gliwice, Poland); double-distilled water was used. Then, 5 μL of methanolic solutions (0.1%; m/v) of selected samples were applied to the chromatographic column by the use of an autosampler Hitachi L-2200 (LaChrom Elite, Hitachi-Merck, Darmstadt, Germany). The analysis was performed with the flow rate of 0.7 mL min^−1 in isocratic mode using various concentrations of organic modifier (methanol) in binary polar mobile phases; percentages of methanol in water were 45–70% (%, v/v) and changed by 5% per step. Chromatograms were detected at 254 nm and the temperature of the column was 25 °C. All experiments were repeated in triplicate, and the final results were taken to be the arithmetic means. Dead time was measured by the use of uracil (Calbiochem. Merck, Darmstadt, Germany). Statistical and regression analyses were performed using Statistica (ver. 13.3 for Windows). The chromatographic lipophilicity parameters ( logkW ) for selected samples were obtained by the extrapolation of the retention parameter logk to pure water, according to Equation (1):(1) logk=logkw−S·ϕ; where logkW is the value of the retention factor of a substance in pure water, S is the slope of the regression curve, and ϕ is the concentration of the organic modifier. The values of logk were calculated based on the raw HPLC data using the formula (2):(2) logk=logtR−t0/t0; where tR is the retention time and t0 is the dead retention time (determined for uracil).
The chromatographic lipophilicity parameters (logkௐ ) for selected samples were ob‐ tained by the extrapolation of the retention parame te r logk to pure water, according to […]
where logkௐ is the value of the retention factor of a substance in pure water, S is the slope of the regression curve, and φ is the concentration of the organic modifier. The values of logk were ca lcula ted based on the raw HPLC data using the formula: […]
logk ൌ log ሺ௧ೃ ି ௧బ௧బ ሻ (2) where tோ is the retention time and t଴ is the dead retention time (determined for ura‐ cil). The goodness of fit of the equation (1) to the experimental data was classified accord‐ ing to Jaffe (Jaffe, H. H. A Reexamination of the Hammet Equation. Chem. Rev. 1953, 53, In our RP‐HPLC experiments, the goodness of fit of the equation to the experi‐ mental data are excellent in most ca ses (r > 0.99). The F statistic val ues are, in all cases, […]

Data set [2] relates to MOLT-4 (Human T-Lymphoid Cell Line). The experiment in a line: MTT cytotoxicity assay, MOLT-4. It counts as cell-based. As to conditions: read-out: IC50 MOLT-4. The procedure:
(§1) The cytotoxicity of new derivatives of dicarboximides was tested in HeLa (cervix carcinoma cell line), K562 (myelogenous leukemia cell line), MOLT-4 (Human T-Lymphoid Cell Line), and HUVEC (normal endothelial) cells. First, the viability of cells was determined after 48 h incubation with the screened compounds used at the concentration of 100 μM (data not shown). […] Cells exposed to 1% DMSO (as vehicle) served as the control with 100% survival.
(§2) Human umbilical vein endothelial cells (Life Technologies, Carlsbad, CA, USA) were cultured (according to the manufacturer’s instructions) in Medium 200 containing low serum growth supplement; 1 × 10^4 cells were seeded on each well on a 96-well plate (Nunc, Roskilde, Denmark). The HeLa (human cervix carcinoma), K562, and MOLT-4 (leukemia) cells were cultured in RPMI 1640 medium supplemented with antibiotics and 10% fetal calf serum in a 5% CO2–95% air atmosphere; 7 × 10^3 cells were seeded on each well on a 96-well plate (Nunc). Twenty-four hours later, cells were exposed to the test compounds for additional 48 hours. Stock solutions of test compounds were freshly prepared in DMSO. The final concentrations of the compounds tested in the cell cultures were 2 × 10^−1, 1 × 10^−1, 5 × 10^−2, 1 × 10^−2, 1 × 10^−3, and 1 × 10^−4 mM. The concentration of DMSO in the cell culture medium was 1%. The values of IC50 (the concentration of test compound required to reduce the cell survival fraction to 50% of the control) were calculated from dose–response curves and used as a measure of cellular sensitivity to a given treatment. The cytotoxicity of all compounds was determined by the MTT [3-(4,5-dimethylthiazol-2-yl)-2,5-diphenyltetrazolium bromide; Sigma, St. Louis, MO, USA] assay. Briefly, after 24 or 48 h of incubation with drugs, the cells were treated with the MTT reagent, and incubation was continued for 2 h. MTT-formazan crystals were dissolved in 20% SDS and 50% DMF at pH 4.7, and absorbance was read at 570 and 650 nm on a microplate reader FLUOstar Omega (BMG Labtech, Offenburg, Germany). As a control (100% viability), we used cells grown in the presence of the vehicle (1% DMSO) only.

The test system of data set [3] is HUVEC (normal endothelial) cells. The experiment in a line: MTT cytotoxicity assay, HUVEC. It counts as cell-based. As to conditions: Homo sapiens, read-out: IC50 HUVEC. As to the method: as §1, §2
In data set [4] the test system is HeLa (human cervix carcinoma) cells. The experiment in a line: MTT cytotoxicity assay, HeLa. The format is cell-based. As to conditions: read-out: IC50 HeLa. The procedure:
as §1, §2

For data set [5], the system named is K562 (myelogenous leukemia cell line). The data set can be described thus: MTT cytotoxicity assay, K562. The format is cell-based, human. As to conditions: Homo sapiens, K562, 48 h, read-out: IC50 K562. The procedure: as §1, §2
[6] abbreviates: MOLT-4, 48 h incubation, average (SD) of three experiments.
[7] abbreviates: 48 h incubation, average (SD) of three experiments.

In the case of `CCC12C(=O)C(CC)(C(c3ccccc3)=C1c1ccccc1)C1C(=O)N(CCN(C)C)C(=O)C12` (stereo not drawn) [Ia], in data set [1], the “logkw (Experimental)” value is 4.94 and the “logkw (Table S2)” value is given as 4.9430.
`CCC12C(=O)C(CC)(C(c3ccccc3)=C1c1ccccc1)C1C(=O)N(CC(O)CN3CCOCC3)C(=O)C12` (stereo not drawn) [2g, 4-[-2-hydroxy-3-(morpholin-4-yl)propyl]-1,7-diethyl-8,9-diphenyl-4-azatricyclo[5.2.1.0^2,6]dec-8-ene-3,5,10-trione]: the IC50 in data set [2] (setting [6]) amounted to 18 µM; in data set [3] (setting [7]) it was 17 µM; in data set [4] (setting [7]) it was 23 µM; in data set [5] (setting [7]), 20 µM. The “logkw (Experimental)” value in data set [1] is given as 4.98. In addition, in data set [1], the “logkw (Table S2)” value is 4.9763.
For `CN(C)CCN1C(=O)C2C(C1=O)C1(c3ccccc3)CC2(c2ccccc2)C(c2ccccc2)=C1c1ccccc1` (stereo not drawn) [II], the IC50 came out at 18 µM in data set [2] (setting [6]), 4 µM in data set [3] (setting [7]), 20 µM in data set [4] (setting [7]) and 16 µM in data set [5] (setting [7]).
In the case of `CC12C(=O)C(C)(C(c3ccccc3)=C1c1ccccc1)C1C(=O)N(CCN3CCOCC3)C(=O)C12` (stereo not drawn) [1j, 4-[2-(morpholin-4-yl)ethy]-1,7-dimethyl-8,9-diphenyl-4-azatricyclo[5.2.1.0^2,6]dec-8-ene-3,5,10-trione], the IC50 in data set [2] (setting [6]), in data set [4] (setting [7]) and in data set [5] (setting [7]) was > 100 µM in each case.
For the compound `CCC12C(=O)C(CC)(C(c3ccccc3)=C1c1ccccc1)C1C(=O)N(CCN3CCCCC3)C(=O)C12` (stereo not drawn) [Ic], the 50% inhibitory concentration (IC50) in data set [2] (setting [6]) is 15 µM; in data set [3] (setting [7]), 15 µM; in data set [4] (setting [7]) it was 18 µM; in data set [5] (setting [7]), 20 µM.
For the compound `CCC12C(=O)C(CC)(C(c3ccccc3)=C1c1ccccc1)C1C(=O)N(CCCN(C)C)C(=O)C12` (stereo not drawn) [Id], in data set [1], the “logkw (Experimental)” value is given as 5.05 and the “logkw (Table S2)” value is 5.0532.
As to `CC12C(=O)C(C)(C(c3ccccc3)=C1c1ccccc1)C1C(=O)N(CC(O)CN3CCOCC3)C(=O)C12` (stereo not drawn) [1g, 4-[-2-hydroxy-3-(morpholin-4-yl)propyl]-1,7-dimethyl-8,9-diphenyl-4-azatricyclo [5.2.1.0^2,6]dec-8-ene-3,5,10-trione], the IC50 in data set [2] (setting [6]), in data set [4] (setting [7]) and in data set [5] (setting [7]) was > 100 µM each time. Moreover, in data set [1], the “logkw (Experimental)” value is 4.83. For the same compound, in data set [1], the “logkw (Table S2)” value is given as 4.8345.
Turning to `CCCCN(CCCC)CC(O)CN1C(=O)C2C(C1=O)C1(CC)C(=O)C2(CC)C(c2ccccc2)=C1c1ccccc1` (stereo not drawn) [2e, 4-[3-(dibutylamino)-2-hydroxypropyl]-1,7-diethyl-8,9-diphenyl-4-azatricyclo[5.2.1.0^2,6]dec-8-ene-3,5,10-trione], the IC50 came to 3.1 µM in data set [2] (setting [6]), 1.2 µM in data set [3] (setting [7]), 19 µM in data set [4] (setting [7]) and 4.1 µM in data set [5] (setting [7]).
On the same counts, the results for `CCCCN(CCCC)CC(O)CN1C(=O)C2C(C1=O)C1(C)C(=O)C2(C)C(c2ccccc2)=C1c1ccccc1` (stereo not drawn) [1e, 4-[3-(dibutylamino)-2-hydroxypropyl]-1,7-dimethyl-8,9-diphenyl-4-azatricyclo [5.2.1.0^2,6]dec-8-ene-3,5,10-trione] are 8 µM, 30 µM, 3.2 µM and 5.8 µM.
For `CCCCN(CCCC)CC(O)CN1C(=O)C2C(C1=O)C1(c3ccccc3)CC2(c2ccccc2)C(c2ccccc2)=C1c1ccccc1` (stereo not drawn) [3e, 4-[3-(dibutylamino)-2-hydroxypropyl]-1,7,8,9-tetraphenyl-4-azatricyclo[5.2.1.0^2,6]dec-8-ene-3,5-dione], the IC50 in data set [2] (setting [6]) amounted to 5.4 µM; in data set [3] (setting [7]), 7 µM; in data set [4] (setting [7]) it was 40 µM; in data set [5] (setting [7]), 6 µM.
Consider `CC12C(=O)C(C)(C(c3ccccc3)=C1c1ccccc1)C1C(=O)N(CC(O)CN3CCCCC3)C(=O)C12` (stereo not drawn) [1f, 4-[2-hydroxy-3-(piperidin-1-yl)propyl]-1,7-dimethyl-8,9-diphenyl-4-azatricyclo[5.2.1.0^2,6]dec-8-ene-3,5,10-trione], for which the 50% inhibitory concentration (IC50) in data set [2] (setting [6]) turned out to be 40 µM; in data set [3] (setting [7]), 21 µM; in data set [4] (setting [7]), 55 µM; in data set [5] (setting [7]) it was 18 µM.
For the compound `CCN(CC)CCN1C(=O)C2C(C1=O)C1(CC)C(=O)C2(CC)C(c2ccccc2)=C1c1ccccc1` (stereo not drawn) [Ib], in data set [1], the “logkw (Experimental)” value is 5.09 and the “logkw (Table S2)” value is recorded as 5.0889.
`CCNCC(O)CN1C(=O)C2C(C1=O)C1(c3ccccc3)CC2(c2ccccc2)C(c2ccccc2)=C1c1ccccc1` (stereo not drawn) [3b, 4-[3-(ethylamino)-2-hydroxypropyl]-1,7,8,9-tetraphenyl-4-azatricyclo[5.2.1.0^2,6]dec-8-ene-3,5-dione]: the half-maximal inhibitory concentration (IC50) in data set [2] (setting [6]), in data set [4] (setting [7]) and in data set [5] (setting [7]) was > 100 µM each time. Moreover, the “logkw (Experimental)” value in data set [1] is reported as 6.31. Besides, the “logkw (Table S2)” value in data set [1] amounted to 6.3071.
On to `CCC12C(=O)C(CC)(C(c3ccccc3)=C1c1ccccc1)C1C(=O)N(CC(O)CNC(C)C)C(=O)C12` (stereo not drawn) [Ie], for which the IC50 in data set [2] (MOLT-4, 48 h) worked out at 15 µM; in data set [3] (48 h) it was 3.5 µM; in data set [4] (48 h) it was 10 µM; in data set [5], 8 µM.
`CC12C(=O)C(C)(C(c3ccccc3)=C1c1ccccc1)C1C(=O)N(CCN3CCCCC3)C(=O)C12` (stereo not drawn) [1i, 4-[2-(piperidin-1-yl)ethy]-1,7-dimethyl-8,9-diphenyl-4-azatricyclo[5.2.1.0^2,6]dec-8-ene-3,5,10-trione]: the 50% inhibitory concentration (IC50) in data set [2] (setting [6]) stood at 15 µM; in data set [3] (setting [7]), 23 µM; in data set [4] (setting [7]), 52 µM; in data set [5] (setting [7]) it was 30 µM.
